Assay results from ChEMBL document CHEMBL1201862, “PubChem BioAssay data set” (2004).
Activity calls are given as the source filed them.

Columns and labels:
[1] = HGIII-sPLA2 enzyme inhibition potency – biochemical, QFRET, IC50, dose response (AID 743457);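 further: green fluorescence rise as the enzyme cleaves BODIPY PC-A2 in liposomes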
[2] = reduction of Shn3 3'UTR-driven luciferase in osteoblasts – cell-based, Clone20 osteoblasts, firefly luciferase, cherry-picked, dose response (AID 624132); format: functional;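 further: firefly luciferase luminescence from reporter carrying the Shn3 3'UTR in osteoblasts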
[3] = non-specific 3'UTR reporter inhibition in Clone20-Shn3RL – cell-based, Renilla luciferase, cherry-picked, counter-screen for Shn3 inhibitor project, dose response (AID 624133); format: functional
Protein skinhead-1 = target: T1, Protein skinhead-1 (Caenorhabditis elegans, UniProt P34707); format: functional
T1 sequence (P34707 whole entry): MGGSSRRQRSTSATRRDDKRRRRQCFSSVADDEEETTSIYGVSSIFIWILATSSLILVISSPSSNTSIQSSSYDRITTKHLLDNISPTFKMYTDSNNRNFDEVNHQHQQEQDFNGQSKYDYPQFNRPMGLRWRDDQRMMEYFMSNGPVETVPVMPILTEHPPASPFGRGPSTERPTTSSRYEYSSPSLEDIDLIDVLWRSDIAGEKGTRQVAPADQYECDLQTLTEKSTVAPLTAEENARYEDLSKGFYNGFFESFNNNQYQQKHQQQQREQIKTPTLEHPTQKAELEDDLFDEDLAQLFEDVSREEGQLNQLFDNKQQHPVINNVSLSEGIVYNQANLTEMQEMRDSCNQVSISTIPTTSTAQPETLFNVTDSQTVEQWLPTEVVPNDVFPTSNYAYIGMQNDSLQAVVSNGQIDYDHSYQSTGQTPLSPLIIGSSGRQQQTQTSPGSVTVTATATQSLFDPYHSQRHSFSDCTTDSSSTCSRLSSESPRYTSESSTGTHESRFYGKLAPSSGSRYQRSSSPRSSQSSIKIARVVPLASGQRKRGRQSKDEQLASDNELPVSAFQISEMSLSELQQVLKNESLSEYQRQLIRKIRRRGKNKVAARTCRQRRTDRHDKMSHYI

Paired box protein Pax-8 = Paired box protein Pax-8 (Homo sapiens, UniProt Q06710); experiment: PAX8 transcriptional activity inhibition in RMG-I – RMG-I cells, luciferase, cherry-pick, dose response (AID 687027); format: functional, cell-based;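 further: luciferase reporter driven by Pax8 target thyroperoxidase promoter measured by SteadyGlo luminescence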
Paired box protein Pax-8, sequence (Q06710 whole entry): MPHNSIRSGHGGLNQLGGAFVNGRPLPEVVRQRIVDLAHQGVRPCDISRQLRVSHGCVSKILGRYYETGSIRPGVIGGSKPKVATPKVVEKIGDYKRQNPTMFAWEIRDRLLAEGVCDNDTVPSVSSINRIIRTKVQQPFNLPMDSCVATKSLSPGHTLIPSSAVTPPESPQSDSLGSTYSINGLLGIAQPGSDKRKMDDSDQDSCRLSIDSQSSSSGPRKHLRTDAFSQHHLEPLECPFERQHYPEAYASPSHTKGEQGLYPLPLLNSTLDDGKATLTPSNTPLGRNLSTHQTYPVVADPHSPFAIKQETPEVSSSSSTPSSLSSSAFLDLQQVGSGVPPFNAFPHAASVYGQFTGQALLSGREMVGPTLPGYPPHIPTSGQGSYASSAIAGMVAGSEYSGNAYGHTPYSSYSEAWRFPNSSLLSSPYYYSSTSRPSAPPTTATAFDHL

[4] = target: T2, DNA repair protein RAD52 homolog (Homo sapiens, UniProt P43351); format: functional, biochemical
T2 sequence (P43351 whole entry): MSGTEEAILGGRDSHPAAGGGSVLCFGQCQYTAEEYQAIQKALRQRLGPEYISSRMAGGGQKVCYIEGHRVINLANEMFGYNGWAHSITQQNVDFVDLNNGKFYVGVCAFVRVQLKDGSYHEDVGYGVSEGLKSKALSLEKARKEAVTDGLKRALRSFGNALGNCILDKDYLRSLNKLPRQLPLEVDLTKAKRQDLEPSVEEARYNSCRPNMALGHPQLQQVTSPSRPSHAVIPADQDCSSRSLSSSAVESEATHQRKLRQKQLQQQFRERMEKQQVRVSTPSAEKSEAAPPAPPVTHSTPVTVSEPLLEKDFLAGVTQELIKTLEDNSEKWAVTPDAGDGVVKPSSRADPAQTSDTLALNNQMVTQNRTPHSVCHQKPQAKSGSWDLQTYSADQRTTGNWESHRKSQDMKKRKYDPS

Cytochrome P450 2C19 = Cytochrome P450 2C19 (Homo sapiens, UniProt P33261); experiment: Cytochrome panel assay with activity outcomes. Panel member name: p450-cyp2c19 Compounds with AC50 equal or less than 10 uM are considered active; format: functional; conditions: read-out: AC50
Cytochrome P450 2C19, sequence (P33261 whole entry): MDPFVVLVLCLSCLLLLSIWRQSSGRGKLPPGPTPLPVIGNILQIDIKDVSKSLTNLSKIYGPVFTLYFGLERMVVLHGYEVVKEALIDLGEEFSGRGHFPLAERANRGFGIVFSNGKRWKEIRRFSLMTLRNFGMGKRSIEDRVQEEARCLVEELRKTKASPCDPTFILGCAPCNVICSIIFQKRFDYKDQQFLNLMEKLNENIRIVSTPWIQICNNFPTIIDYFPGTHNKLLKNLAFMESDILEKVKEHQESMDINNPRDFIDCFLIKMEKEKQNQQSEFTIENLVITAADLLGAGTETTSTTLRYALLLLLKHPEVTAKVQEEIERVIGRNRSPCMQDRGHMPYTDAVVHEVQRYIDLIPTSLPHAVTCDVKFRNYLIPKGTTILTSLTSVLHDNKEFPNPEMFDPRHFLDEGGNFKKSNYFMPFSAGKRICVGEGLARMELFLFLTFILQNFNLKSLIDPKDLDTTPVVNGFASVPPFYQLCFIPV

Cytochrome P450 2C9 = Cytochrome P450 2C9 (Homo sapiens, UniProt P11712)
Cytochrome P450 2C9, sequence (P11712 whole entry): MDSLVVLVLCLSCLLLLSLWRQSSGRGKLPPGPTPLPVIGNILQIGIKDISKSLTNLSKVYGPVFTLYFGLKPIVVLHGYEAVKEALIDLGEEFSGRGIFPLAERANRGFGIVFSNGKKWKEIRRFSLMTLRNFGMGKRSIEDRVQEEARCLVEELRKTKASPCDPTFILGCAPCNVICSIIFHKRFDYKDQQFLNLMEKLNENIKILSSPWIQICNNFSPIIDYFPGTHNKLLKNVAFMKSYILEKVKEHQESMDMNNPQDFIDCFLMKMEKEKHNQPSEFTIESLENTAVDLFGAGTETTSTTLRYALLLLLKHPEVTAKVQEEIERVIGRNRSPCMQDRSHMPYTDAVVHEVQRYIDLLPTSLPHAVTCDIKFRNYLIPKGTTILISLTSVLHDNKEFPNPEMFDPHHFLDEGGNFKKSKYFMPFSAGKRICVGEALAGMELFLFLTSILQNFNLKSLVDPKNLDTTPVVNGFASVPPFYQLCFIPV

[5] = HEK-293T viability loss after treatment – luminescence, T-cell screen hits, cytotoxicity control for TCR NF-kB inhibitor project, dose response (AID 489026); format: functional, cell-based;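 further: cells exposed to compound about 14 hours before the viability readout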
[6] = loss of viability in HepG2 cells – cell-based, CellTiter-Glo, cherry-picked, cytotoxicity control for Shn3 inhibitor project, dose response (AID 624134); format: functional
[7] = blockers of HIV-1 envelope-mediated cell-cell fusion – cherry-pick, dose response (AID 652057); format: functional, cell-based
[8] = viability loss in CEM21 cells – cell-based, CellTiter-Glo luminescence, cherry-picked, cytotoxicity control for viral fusion inhibitor project, dose response (AID 652042); format: functional;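 further: potency for signal decrease meaning cytotoxicity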
[9] = blockers of HIV-1 ZM109 envelope-driven cell-cell fusion – HeLa effector, CEM target cells, luciferase, cherry-pick, dose response (AID 652058); format: functional, cell-based;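 further: luciferase signal from HIV-1 Env mediated cell-cell fusion of effector and target cells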
[10] = HIV-1 AD8 envelope cell-cell fusion blockers – cherry-pick, dose response (AID 652062); format: functional, cell-based;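 further: luciferase signal from cell-cell fusion driven by HIV-1 clade B AD8 Env; potency is for inhibitors of fusion seen as a drop in luminescence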
[11] = NIH-3T3 fibroblast cytotoxicity, dose response, cytotoxicity control, cell-based, fluorescence, Alamar Blue, secondary assay (AID 2327); format: functional;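 further: NIH-3T3 mouse fibroblasts cultured with fluconazole at 8 µg/mL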
cells [12] = format: functional, cell-based
cells [13] = format: functional, cell-based; remark: listed apart in the source
[14] = target: T3, Ubiquitin-conjugating enzyme E2 N (Homo sapiens, UniProt P61088); format: functional;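 further: Dose-response confirmation in a TR-FRET assay detecting UBC13-driven polyubiquitin chain formation, inhibition measured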
T3 sequence (P61088 whole entry): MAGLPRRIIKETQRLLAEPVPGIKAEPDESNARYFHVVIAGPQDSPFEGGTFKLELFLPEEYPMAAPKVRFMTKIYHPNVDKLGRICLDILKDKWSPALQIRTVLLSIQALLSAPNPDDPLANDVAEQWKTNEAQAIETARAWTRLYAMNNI

[15] = off-target signal loss in HeLa-CEM21 co-culture – HeLa F-luc CTL cells, cherry-picked, counter-screen for HIV-1 Env fusion inhibitor project, dose response (AID 652040); format: functional, cell-based;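 further: potency for signal decrease marking cytotoxic or nonspecific inhibition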

In the case of COc1ccccc1N=C(S)NNC(=O)c1nn(C)c(C)c1Cl, the IC50 [1] is reported as > 122 µM (inactive).

For COC(=O)C12OCC34C(CC5C(C)=C(O)C(=O)CC5(C)C3C(O)C1O)OC(=O)C(OC(=O)/C=C(\C)C(C)C)C24 (stereo unspecified), the AC50 [2] was < 0.26 µM (active), the AC50 [3] was < 0.26 µM (active) and the IC50 (Protein skinhead-1) was 42.7 µM (active). For the same molecule, the AC50 (Paired box protein Pax-8) was < 0.26 µM (active).

In the case of Cc1ccc(F)cc1-c1cc2nc(NCCCN(C)C)n(C)c(=O)c2s1, the AC50 [4] is reported as 19.2 µM (active).

With COCCCNC(=O)/C=C/c1cccc(Cl)c1 the AC50 (Cytochrome P450 2C19) was 15.8 µM (inconclusive) and the AC50 (Cytochrome P450 2C9) was “inconclusive”.

With CCCC(=O)N1CCN(c2ccc(NC(=O)c3cc4ccccc4o3)cc2)CC1 the IC50 (Protein skinhead-1) was > 100 µM (inactive).

For Cc1ccc(C(=O)NC(=S)Nc2ccccc2C(F)(F)F)c(C)c1, the IC50 (Protein skinhead-1) was > 100 µM (inactive).

For O=C(Nc1ccc(N2CCN(C(=O)c3ccc(Cl)cc3)CC2)cc1)c1ccc2c(c1)OCCO2, the IC50 [5] was > 80 µM (inactive), the AC50 [2] was 2.54 µM (active) and the AC50 [6] was 1.96 µM (active). For the same molecule, the AC50 [3] was 7.89 µM (active), the AC50 [7] was 32.5 µM (active) and the AC50 [8] was 47.7 µM (active). The AC50 [9] was 0.791 µM (active) and the AC50 [10] was 6.8 µM (active).

For CCOC(=O)c1c(-c2ccccc2)oc2ccc(OCC(O)CN(C)C)cc12 (stereo unspecified), the EC50 [11] was 10 µM (inconclusive), the EC50 (cells [12]) was > 350 µM (not active) and the EC50 (cells [13]) was 21.7 µM (active). For the same molecule, the IC50 [14] was > 20 µM (inactive) and the AC50 [4] was 15.5 µM (active).

For CCN(CC)S(=O)(=O)c1cccc(NC(=O)c2ccc(-n3nc(C)cc3C)cc2)c1, the AC50 [8] was 49.7 µM (active), the AC50 [15] was 10.7 µM (active) and the AC50 [10] was 15.8 µM (active).

For N=C(N)Nc1ccc2[nH]c3c(c2c1)C[C@@]1(O)[C@H]2Cc4ccc(O)c5c4[C@@]1(CCN2CC1CC1)[C@H]3O5, the AC50 [4] was 8.43 µM (active).

In the case of C[C@H](CO)N1C[C@H](C)[C@H](CN(C)S(=O)(=O)c2cccc(C#N)c2)OCc2ccccc2-c2c(n(C)c3ccccc23)C1=O, the AC50 [7] is reported as 0.726 µM (active), the AC50 [8] is reported as 46.1 µM (active) and the AC50 [9] is reported as 3.13 µM (active). For the same molecule, the AC50 [10] was 10.3 µM (active).
